# From patent US12186303B2, “Feed additive for cattle comprising n-acetyl-l-tryptophan as active ingredient” (CJ CHEILJEDANG CORPORATION, priority 2018, dated 2025)
# Columns and labels:
# Korean native steers = assay: Body weight and average daily gain according to NALT feeding under heat stress conditions; assay type: in vivo, Korean native cattle
# Procedure: In the present disclosure, 8 Korean native steers (15.9±0.16 months old on average) were selected and used. The experimental procedure and method were approved by the Institutional Animal Care and Use Committee at Konkuk University, Seoul, Republic of Korea (Approval No. KU17136). […] Analysis of chemical composition (moisture, crude protein, crude fat, crude ash, etc.) and amino acids (19 types) of the basal diet stored at −20° C. was performed, and the results are shown in Table 3. After grouping the animals by statistical analysis of initial body weights, the animals were bred in 1.0×1.5 m^2 individual pens during the experiment period. The feed was offered based on an amount of dry matter of daily total mixed ration (TMR) per head. After 7 days of an adaptation period for N-acetyl-L-tryptophan (NALT), a mixture of 0.1% N-acetyl-L-tryptophan (NALT) and the total mixed ration was fed to individual animals every morning at 8 a.m. for 6 weeks, and water was available ad libitum. Total amounts of L-tryptophan ingested by the control and the experimental group (NALT-treated group) by feeding NALT were 6.0 g/day/head and 18.2 g/day/head, respectively. The experiment was performed such that the NALT-treated group ingested 12.2 g/day/head more L-tryptophan than the control. Meanwhile, results of growth performance analysis (body weight and average feed intake) and genetic analysis of loin tissue were obtained by statistically comparing and analyzing significant differences between the control and the NALT-treated group, and results of hematological analysis were obtained via statistical comparison and analysis depending on NALT treatment, experiment period (days), and interaction (treatment×days). These numerical values were expressed as average values, and a significance test was performed at the 5% level using Student's t-test by using a JMP 5.0 software package (SAS Institute Inc., Cary, NC, USA). Temperature (° C.) and relative humidity (%) were recorded every day during a one-week adaptation period and a 6-week experiment period using a portable temperature and humidity meter. Average temperature and average relative humidity of each week were calculated using the temperature and relative humidity recorded during the total experiment period. In addition, a temperature-humidity index (THI) was calculated using temperature and humidity as shown in the following equation, and heat stress state may be diagnosed using the THI as an index feature of a heat load. THI=(1.8×T+32)−[0.55−0.0055×RH)×(1.8×T−26.8) Initial weight (week 0), intermediate weight (week 5), and end weight (week 10) of sentinel animals were measured, i.e., three times in total, before offering morning feed. The average daily gain (ADG) of the sentinel animals was calculated by dividing the differences in weight, between the initial weight and the intermediate weight and between the intermediate weight and the end weight, by the total number of days of the experiment.
# [1] = tested on: genes related to fat differentiation (PPARr, CEBPa, FABP4, LPL, and SCD) and muscle differentiation (MYF6, MyoD, and MyoG) of the loin tissue; assay: Real-time PCR of gene expression related to loin tissue development under heat stress conditions; assay type: in vivo, Korean native cattle
# Source text: After grouping the animals by statistical analysis of initial body weights, the animals were bred in 1.0×1.5 m^2 individual pens during the experiment period. The feed was offered based on an amount of dry matter of daily total mixed ration (TMR) per head. After 7 days of an adaptation period for N-acetyl-L-tryptophan (NALT), a mixture of 0.1% N-acetyl-L-tryptophan (NALT) and the total mixed ration was fed to individual animals every morning at 8 a.m. for 6 weeks, and water was available ad libitum. Total amounts of L-tryptophan ingested by the control and the experimental group (NALT-treated group) by feeding NALT were 6.0 g/day/head and 18.2 g/day/head, respectively. The experiment was performed such that the NALT-treated group ingested 12.2 g/day/head more L-tryptophan than the control. Meanwhile, results of growth performance analysis (body weight and average feed intake) and genetic analysis of loin tissue were obtained by statistically comparing and analyzing significant differences between the control and the NALT-treated group, and results of hematological analysis were obtained via statistical comparison and analysis depending on NALT treatment, experiment period (days), and interaction (treatment×days). These numerical values were expressed as average values, and a significance test was performed at the 5% level using Student's t-test by using a JMP 5.0 software package (SAS Institute Inc., Cary, NC, USA). Samples of loin tissue of the sentinel animals were obtained on the final day of the experiment (week 10). The samples were obtained using a biopsy gun for animals (TNT Research Co., Ltd., Gyeonggi-do, Republic of Korea), added to a 2 mL tube, and incubated in liquid nitrogen gas. After extraction of RNA from each tissue sample, real-time PCR was conducted to analyze expression levels of genes related to fat differentiation (PPARr, CEBPa, FABP4, LPL, and SCD) and muscle differentiation (MYF6, MyoD, and MyoG) of the loin tissue of each animal. Total RNA was isolated using the TRIzol RNA isolation protocol, and the amount of RNA was measured using a NanoDrop 1000 (Thermo Scientific, Seoul, Republic of Korea). The RNA integrity (RIN) was estimated using an RNA Nano 6000 Assay Kit of the Agilent Bioanalyzer 2100 system (Agilent Technologies, Richardson, USA), and an obtained RNA integrity number (RIN) was 6.5±0.27. After synthesizing cDNA from mRNA, real-time PCR was conducted to measure expression levels of the genes.
# [2] = 0.1% NALT, week 10, control = 1.00000
structure (smiles),measurement,setting,value
"CC(=O)N[C@@H](Cc1c[nH]c2ccccc12)C(=O)O [NALT, N-acetyl-L-tryptophan]",Body weight,"Korean native steers; heat stress, 0.1% NALT, Week 0 (initial weight)",428.8 kg
same,Body weight,"Korean native steers; heat stress, 0.1% NALT, Week 5",480.8 kg
same,Body weight,"Korean native steers; heat stress, 0.1% NALT, Week 10",510.5 kg
same,ADG,"Korean native steers; heat stress, 0.1% NALT, week 0 to week 5",1.49 kg/day
same,Total ADG,"Korean native steers; heat stress, 0.1% NALT, week 0 to week 10",1.17 kg/day
same,ADG,"Korean native steers; heat stress, 0.1% NALT, week 5 to week 10",0.85 kg/day
same,Average daily gain compared to the control,Korean native steers; period where the THI was over 80 (high heat stress),significantly increased
same,Gene expression level of SCD compared to the control,[1],tended to be higher
same,C/EBPα expression level in loin tissue,[1]; [2],0.8053
same,FABP4 expression level in loin tissue,[1]; [2],1.501
same,LPL expression level in loin tissue,[1]; [2],1.774
same,MYF6 expression level in loin tissue,[1]; [2],1.093
same,MyoD expression level in loin tissue,[1]; [2],1.045
same,MyoG expression level in loin tissue,[1]; [2],2.086
same,PPARγ expression level in loin tissue,[1]; [2],1.301
same,SCD expression level in loin tissue,[1]; [2],1.448
same,Expression levels of MYF6 and MyoG and of lipolysis/fat transport genes (FABP4 and LPL) in loin tissue compared to the control,[1]; p<0.05,higher
same,Expression of muscle differentiation-related gene (MyoD) and fat differentiation-related genes (C/EBPα and PPARγ) compared to the control,[1]; p>0.05,No statistically significant difference
